Measured values as given in paper PMC6375636, “Monotherapy with a low-dose lipopeptide HIV fusion inhibitor maintains long-term viral suppression in rhesus macaques” (PLoS Pathogens, 2019).
Read-outs that look alike come from different tables or passages of the source. Peptide text beside a SMILES is read from it. * marks the point of attachment. Stearoyl = CCCCCCCCCCCCCCCCCC(=O)*; Palmitoyl = CCCCCCCCCCCCCCCC(=O)*

What was measured:
[1] = tested on: HIV-1NL4-3(D36G) pseudovirus; type: cell-based
Description: The inhibitory activities of inhibitors against HIV-1 pseudoviruses and replication-competent isolates were measured as described previously. Briefly, HIV-1 pseudoviruses were generated via the cotransfection of HEK293T cells with an Env-expressing plasmid and a backbone plasmid that encodes Env-defective, luciferase-expressing HIV-1 genome (pSG3Δenv). Viral stocks of replication-competent HIV-1 isolates were generated by transfecting viral molecular clones into HEK293T cells. […] Inhibitors were prepared in 3-fold dilutions, mixed with 100 TCID50 of a virus, and then incubated for 1 h at room temperature. […] Luciferase activity was measured as described above.

[2] = tested on: HIV-1 pseudovirus, primary Env ZM53M.PB12; type: cell-based; conditions: Env ZM53M.PB12, subtype C; mean ± SD of 3 assays in triplicate
Description: (§1) The inhibitory activities of inhibitors against HIV-1 pseudoviruses and replication-competent isolates were measured as described previously. Briefly, HIV-1 pseudoviruses were generated via the cotransfection of HEK293T cells with an Env-expressing plasmid and a backbone plasmid that encodes Env-defective, luciferase-expressing HIV-1 genome (pSG3Δenv). Viral stocks of replication-competent HIV-1 isolates were generated by transfecting viral molecular clones into HEK293T cells. Culture supernatants were harvested at 48 h posttransfection, and 50% tissue culture infectious doses (TCID50) in TZM-bl cells were determined. Inhibitors were prepared in 3-fold dilutions, mixed with 100 TCID50 of a virus, and then incubated for 1 h at room temperature. The mixture was added to TZM-bl cells (10^4/well), and the cells were incubated for additional 48 h at 37°C. Luciferase activity was measured as described above.

[3] = tested on: HIV-1 pseudovirus, primary Env CAP210.2.00.E8; type: cell-based; conditions: Env CAP210.2.00.E8, subtype C; mean ± SD of 3 assays in triplicate
Description: as §1

[4] = tested on: divergent HIV-1 subtypes (pseudoviruses with primary Envs); type: cell-based; conditions: mean of the 36 pseudoviruses of Table 3; for VRC01 >300000 apparently counted as 300000; read-out: Mean IC50 over divergent HIV-1 subtypes
Description: as §1

HIV-1 LAI = type: cell-based; conditions: Table 2, subtype B, X4, mean ± SD of 3 assays in triplicate
Description: as §1

[5] = tested on: HIV-1 pseudovirus, primary Env CNE55; type: cell-based; conditions: Env CNE55, subtype A/E; mean ± SD of 3 assays in triplicate
Description: as §1

[6] = tested on: HIV-1 pseudovirus, primary Env AC10.0.29; type: cell-based; conditions: Env AC10.0.29, subtype B; mean ± SD of 3 assays in triplicate
Description: as §1

[7] = tested on: HIV-1 pseudovirus, primary Env JRFL; type: cell-based; conditions: subtype B, mean ± SD of 3 assays in triplicate
Description: as §1

HIV-1 WITO.c/2474 = type: cell-based; conditions: Table 2; WITO.c/2474, subtype B, R5; mean ± SD of 3 assays in triplicate
Description: as §1

HIV-1JRCSF = type: cell-based
Description: as §1

[8] = tested on: HIV-1 pseudovirus, primary Env CE1176_A3; type: cell-based; conditions: Env CE1176_A3, subtype C; mean ± SD of 3 assays in triplicate
Description: as §1

[9] = tested on: HIV-1 pseudovirus, primary Env 43–22; type: cell-based; conditions: Env 43–22, subtype B'; mean ± SD of 3 assays in triplicate
Description: as §1

[10] = tested on: HIV-1 pseudovirus, primary Env SHX335.24; type: cell-based; conditions: Env SHX335.24, subtype A/E; mean ± SD of 3 assays in triplicate
Description: as §1

[11] = tested on: HIV-1 pseudovirus, primary Env TRO.11; type: cell-based; conditions: Env TRO.11, subtype B; mean ± SD of 3 assays in triplicate
Description: as §1

[12] = tested on: HIV-1 pseudovirus, primary Env 92RW020; type: cell-based; conditions: Env 92RW020, subtype A; mean ± SD of 3 assays in triplicate
Description: as §1

HIV-1 THRO.c/2626 = type: cell-based; conditions: Table 2; THRO.c/2626, subtype B, R5; mean ± SD of 3 assays in triplicate
Description: as §1

[13] = tested on: HIV-1 pseudovirus, primary Env CH110; type: cell-based; conditions: Env CH110, subtype B/C; mean ± SD of 3 assays in triplicate
Description: as §1

[14] = tested on: HIV-1 pseudovirus, primary Env B02; type: cell-based; conditions: Env B02, subtype B'; mean ± SD of 3 assays in triplicate
Description: as §1

[15] = tested on: HIV-1 pseudovirus, primary Env CNE8; type: cell-based; conditions: Env CNE8, subtype A/E; mean ± SD of 3 assays in triplicate
Description: as §1

[16] = tested on: HIV-1 pseudovirus, primary Env GX11.13; type: cell-based; conditions: Env GX11.13, subtype A/E; mean ± SD of 3 assays in triplicate
Description: as §1

[17] = lipopeptide alone, 10 μM in PBS, representative of 2 assays; for Helix content (%): [θ]222 / -33,000; for Tm (°C): ellipticity at 222 nm, 20-98°C, 2°C/min
[18] = target: T1, gp41 NHR-derived target mimic peptide N39 (Human immunodeficiency virus type 1 group M subtype B, UniProt P04578); assay: CD spectroscopy of lipopeptides in complex with target mimic peptide N39; type: binding, HIV-1; set-up: [θ]222: unit not given here; conditions: complex with N39, each peptide 10 μM in PBS; representative of 2 assays
T1 construct: the gp41 NHR-derived target mimic peptide N39
T1 sequence (P04578 528-566): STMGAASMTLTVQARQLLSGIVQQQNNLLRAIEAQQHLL
Text: Spectra were corrected by subtracting a solvent blank.

[19] = Fig 1, NL4-3(D36G) pseudovirus, mean ± SD of three assays in triplicate, read-out: Anti-HIV activity (IC50, pM) NL4-3 entry
[20] = Fig 1, replication-competent virus, mean ± SD of three assays in triplicate, read-out: Anti-HIV activity (IC50, pM) JRCSF infection
[21] = Table 2, JR-CSF, subtype B, R5, mean ± SD of 3 assays in triplicate, read-out: Mean IC50
[22] = Table 4, NL4-3D36G, T-20 sensitive, mean ± SD of 3 assays in triplicate, value in parentheses behind the bound, read-out: IC50

Row | Molecule | IC50 [1, 19] [pM] | IC50 [2] [nM] | IC50 [3] [nM] | IC50 [4] [nM] | IC50 (HIV-1 LAI) [nM] | IC50 [5] [nM] | IC50 [6] [nM] | IC50 [7] [nM] | IC50 (HIV-1 WITO.c/2474) [nM] | IC50 (HIV-1JRCSF; [20]) [pM] | IC50 (HIV-1JRCSF; [21]) [pM] | IC50 [8] [nM] | IC50 [9] [nM] | IC50 [10] [nM] | IC50 [11] [nM] | IC50 [12] [nM] | IC50 (HIV-1 THRO.c/2626) [nM] | IC50 [13] [nM] | IC50 [14] [nM] | IC50 [15] [nM] | further results
1 | CCCCCCCCCCCCCCCC(=O)NCCCC[C@H](NC(=O)[C@H](CCC(=O)O)NC(=O)[C@H](CC(C)C)NC(=O)[C@H](CCCCN)NC(=O)[C@H](CCCCN)NC(=O)[C@H](CC(C)C)NC(=O)[C@H](CCC(=O)O)NC(=O)[C@H](CCC(=O)O)NC(=O)[C@H](CCC(=O)O)NC(=O)[C@H](CC(N)=O)NC(=O)[C@H](CCCCN)NC(=O)[C@H](CCCCN)NC(=O)[C@H](CCC(N)=O)NC(=O)[C@H](CCC(N)=O)NC(=O)[C@H](CCC(=O)O)NC(=O)[C@H](CCC(=O)O)NC(=O)[C@H](C)NC(=O)[C@H](CCCCN)NC(=O)[C@H](CCCCN)NC(=O)[C@H](CC(C)C)NC(=O)[C@H](CC(C)C)NC(=O)[C@H](CCC(=O)O)NC(=O)[C@H](CCC(=O)O)NC(=O)[C@@H](NC(=O)[C@H](CCCCN)NC(=O)[C@H](CCC(N)=O)NC(=O)[C@H](CCC(=O)O)NC(=O)[C@H](Cc1c[nH]c2ccccc12)NC(C)=O)[C@@H](C)CC)C(N)=O [LP-52, reference compound] (Ac-WEQKIEELLKKAEEQQKKNEEELKKLEK(Palmitoyl)-NH2) | 6.12 ± 0.25 | 0.0269 ± 0.00304 | 0.0393 ± 0.00357 | 0.017 | 0.0122 ± 0.00093 | 0.0173 ± 0.00141 | 0.00971 ± 0.00081 | 0.0467 ± 0.00696 | 0.00529 ± 0.00161 | 7.47 ± 1.9 | 8.02 ± 3.59 | 0.0111 ± 0.00152 | 0.00783 ± 0.00074 | 0.0189 ± 0.00034 | 0.0206 ± 0.00267 | 0.0393 ± 0.00151 | 0.0271 ± 0.00461 | 0.00798 ± 0.0013 | 0.0149 ± 0.00155 | 0.00497 ± 0.00131 | IC50 [16]: 0.0087 ± 0.00088 nM; [θ]222 ([17]; room temperature): -14952 degree.cm^2.dmol^-1; Helix content (%) [17]: 45%; Tm (°C) [17]: 56 °C; Helix content (%) [18]: 64%; [θ]222 [18]: -21060
2 | CCCCCCCCCCCCCCCCCC(=O)NCCCC[C@H](NC(=O)[C@H](CCC(=O)O)NC(=O)[C@H](CC(C)C)NC(=O)[C@H](CCCCN)NC(=O)[C@H](CCCCN)NC(=O)[C@H](CC(C)C)NC(=O)[C@H](CCC(=O)O)NC(=O)[C@H](CCC(=O)O)NC(=O)[C@H](CCC(=O)O)NC(=O)[C@H](CC(N)=O)NC(=O)[C@H](CCCCN)NC(=O)[C@H](CCCCN)NC(=O)[C@H](CCC(N)=O)NC(=O)[C@H](CCC(N)=O)NC(=O)[C@H](CCC(=O)O)NC(=O)[C@H](CCC(=O)O)NC(=O)[C@H](C)NC(=O)[C@H](CCCCN)NC(=O)[C@H](CCCCN)NC(=O)[C@H](CC(C)C)NC(=O)[C@H](CC(C)C)NC(=O)[C@H](CCC(=O)O)NC(=O)[C@H](CCC(=O)O)NC(=O)[C@@H](NC(=O)[C@H](CCCCN)NC(=O)[C@H](CCC(N)=O)NC(=O)[C@H](CCC(=O)O)NC(=O)[C@H](Cc1c[nH]c2ccccc12)NC(C)=O)[C@@H](C)CC)C(N)=O [LP-80] (Ac-WEQKIEELLKKAEEQQKKNEEELKKLEK(Stearoyl)-NH2) | 1.62 | 0.00862 ± 0.00074 | 0.0106 ± 0.00256 | 0.00558 | 0.00585 ± 0.00086 | 0.00111 ± 0.00018 | 0.00501 ± 0.00093 | 0.0104 ± 0.00225 | 0.00338 ± 0.00109 | 2.45 | 4.02 ± 2.63 | 0.00294 ± 0.00019 | 0.00324 ± 0.00027 | 0.00283 ± 0.00066 | 0.00392 ± 0.00026 | 0.00974 ± 0.00093 | 0.0149 ± 0.00193 | 0.0033 ± 0.00029 | 0.0089 ± 0.00103 | 0.00356 ± 0.0007 | IC50 [1, 22]: < 10 pM; IC50 [16]: 0.00485 ± 0.00099 nM; Helix content (%) [17]: 52%; Tm (°C) [17]: 56 °C; Helix content (%) [18]: 57%; [θ]222 [18]: -18955
3 | enfuvirtide [Lipopeptide T-20, reference compound] | 8560 ± 1050 | 22.7 ± 0.943 | 123 ± 4.77 | 30 | 1.16 ± 0.103 | 25.1 ± 2.33 | 2.85 ± 0.103 | 9.62 ± 0.502 | 7.81 ± 1.62 | 4460 ± 1400 | 2970 ± 788 | 8.4 ± 0.496 | 23.2 ± 0.593 | 40.6 ± 1.42 | 7.05 ± 1.33 | 3.24 ± 0.232 | 31.3 ± 2.39 | 31 ± 2.67 | 10.4 ± 0.529 | 24.8 ± 1.88 | IC50 [1, 22]: 8770 ± 1020 pM; IC50 [16]: 24.9 ± 2.21 nM
